In ChEMBL document CHEMBL5724914, “Linking interpersonal differences in gut microbiota composition and drug biotransformation activity” (2024):

What was measured:
[1] = (§1) The drug is tested on WLS-027 corresponding to human gut metagenome with ENA study accession number: PRJEB37062 and ENA sample accession number: ERS12561744 for biotransformation under anaerobic condition. The drug concentrations were measured over 9 timepoints collected between 0 and 24 hours of incubation by liquid-chromatography-coupled mass spectrometry (LC–MS); settings: 2 µM
[2] = as §1, with “WLS-090” for “WLS-027”, “ERS12561753” for “ERS12561744”; settings: 2 µM
[3] = as §1, with “Z-019” for “WLS-027”, “rat” for “human”, “ERS12561818” for “ERS12561744”; settings: 2 µM
[4] = as §1, with “Z-020” for “WLS-027”, “rabbit” for “human”, “ERS12561819” for “ERS12561744”; settings: 2 µM
[5] = human gut metagenome, 24 h, 2 µM
[6] = as §1, with “Z-003” for “WLS-027”, “pig” for “human”, “ERS12561803” for “ERS12561744”; settings: 2 µM
[7] = human gut metagenome, 24 h, 2 µM; remark: listed apart in the source
[8] = human gut metagenome, 24 h, 2 µM; remark: listed apart in the source
[9] = as §1, with “Z-018” for “WLS-027”, “pig” for “human”, “ERS12561817” for “ERS12561744”; settings: 2 µM
[10] = as §1, with “Z-013” for “WLS-027”, “rabbit” for “human”, “ERS12561813” for “ERS12561744”; settings: 2 µM
[11] = human gut metagenome, 24 h, 2 µM; remark: listed apart in the source
[12] = as §1, with “Z-016” for “WLS-027”, “mouse” for “human”, “ERS12561815” for “ERS12561744”; settings: 2 µM
[13] = human gut metagenome, 24 h, 2 µM; remark: listed apart in the source
[14] = human gut metagenome, 24 h, 2 µM; remark: listed apart in the source
[15] = human gut metagenome, 24 h, 2 µM; remark: listed apart in the source
[16] = human gut metagenome, 24 h, 2 µM; remark: listed apart in the source
[17] = human gut metagenome, 24 h, 2 µM; remark: listed apart in the source
[18] = as §1, with “WLS-220” for “WLS-027”, “ERS12561769” for “ERS12561744”; settings: 2 µM
[19] = human gut metagenome, 24 h, 2 µM; remark: listed apart in the source
[20] = as §1, with “WLS-370” for “WLS-027”, “ERS12561793” for “ERS12561744”; settings: 2 µM
Also: call rule not given here.

In the case of `CC(C)c1nc(N(C)S(C)(=O)=O)nc(-c2ccc(F)cc2)c1/C=C/[C@@H](O)C[C@@H](O)CC(=O)[O-].CC(C)c1nc(N(C)S(C)(=O)=O)nc(-c2ccc(F)cc2)c1/C=C/[C@@H](O)C[C@@H](O)CC(=O)[O-].[Ca+2]` [ROSUVASTATIN CALCIUM], the “Bacterial Biotransformation” value [1] is reported as “Compound metabolized”, the “Bacterial Biotransformation” value [2] is reported as “Compound metabolized” and the “Bacterial Biotransformation” value [3] is reported as “Compound NOT metabolized”. For the same molecule, the “Bacterial Biotransformation” value [4] was “Compound NOT metabolized”, the “Bacterial Biotransformation” value [5] was “Compound NOT metabolized” and the “Bacterial Biotransformation” value [6] was “Compound NOT metabolized”. For the same molecule, the “Bacterial Biotransformation” value [7] was “Compound NOT metabolized”, the “Bacterial Biotransformation” value [8] was “Compound metabolized” and the “Bacterial Biotransformation” value [9] was “Compound NOT metabolized”. The “Bacterial Biotransformation” value [10] was “Compound NOT metabolized”, the “Bacterial Biotransformation” value [11] was “Compound metabolized” and the “Bacterial Biotransformation” value [12] was “Compound NOT metabolized”. The “Bacterial Biotransformation” value [13] was “Compound NOT metabolized”, the “Bacterial Biotransformation” value [14] was “Compound NOT metabolized” and the “Bacterial Biotransformation” value [15] was “Compound metabolized”. The “Bacterial Biotransformation” value [16] was “Compound metabolized”, the “Bacterial Biotransformation” value [17] was “Compound NOT metabolized” and the “Bacterial Biotransformation” value [18] was “Compound metabolized”. The “Bacterial Biotransformation” value [19] was “Compound metabolized” and the “Bacterial Biotransformation” value [20] was “Compound metabolized”.

For `C=CC[C@@H]1/C=C(\C)C[C@H](C)C[C@H](OC)[C@H]2O[C@@](O)(C(=O)C(=O)N3CCCC[C@H]3C(=O)O[C@H](/C(C)=C/[C@@H]3CC[C@@H](O)[C@H](OC)C3)[C@H](C)[C@@H](O)CC1=O)[C@H](C)C[C@@H]2OC.O` [TACROLIMUS], the “Bacterial Biotransformation” value [1] was “Compound metabolized”, the “Bacterial Biotransformation” value [2] was “Compound metabolized” and the “Bacterial Biotransformation” value [3] was “Compound NOT metabolized”. The “Bacterial Biotransformation” value [4] was “Compound NOT metabolized”, the “Bacterial Biotransformation” value [5] was “Compound metabolized” and the “Bacterial Biotransformation” value [6] was “Compound metabolized”. For the same molecule, the “Bacterial Biotransformation” value [7] was “Compound metabolized”, the “Bacterial Biotransformation” value [8] was “Compound metabolized” and the “Bacterial Biotransformation” value [9] was “Compound NOT metabolized”. The “Bacterial Biotransformation” value [10] was “Compound NOT metabolized”, the “Bacterial Biotransformation” value [11] was “Compound metabolized” and the “Bacterial Biotransformation” value [12] was “Compound NOT metabolized”. The “Bacterial Biotransformation” value [13] was “Compound NOT metabolized”, the “Bacterial Biotransformation” value [14] was “Compound metabolized” and the “Bacterial Biotransformation” value [15] was “Compound metabolized”. The “Bacterial Biotransformation” value [16] was “Compound metabolized”, the “Bacterial Biotransformation” value [17] was “Compound metabolized” and the “Bacterial Biotransformation” value [18] was “Compound metabolized”. For the same molecule, the “Bacterial Biotransformation” value [19] was “Compound metabolized” and the “Bacterial Biotransformation” value [20] was “Compound metabolized”.

For `CCS(=O)(=O)CCn1c([N+](=O)[O-])cnc1C` [TINIDAZOLE], the “Bacterial Biotransformation” value [1] was “Compound metabolized”, the “Bacterial Biotransformation” value [2] was “Compound metabolized” and the “Bacterial Biotransformation” value [3] was “Compound metabolized”. For the same molecule, the “Bacterial Biotransformation” value [4] was “Compound metabolized”, the “Bacterial Biotransformation” value [5] was “Compound metabolized” and the “Bacterial Biotransformation” value [6] was “Compound metabolized”. For the same molecule, the “Bacterial Biotransformation” value [7] was “Compound metabolized”, the “Bacterial Biotransformation” value [8] was “Compound metabolized” and the “Bacterial Biotransformation” value [9] was “Compound metabolized”. For the same molecule, the “Bacterial Biotransformation” value [10] was “Compound metabolized”, the “Bacterial Biotransformation” value [11] was “Compound metabolized” and the “Bacterial Biotransformation” value [12] was “Compound metabolized”. The “Bacterial Biotransformation” value [13] was “Compound metabolized”, the “Bacterial Biotransformation” value [14] was “Compound metabolized” and the “Bacterial Biotransformation” value [15] was “Compound metabolized”. For the same molecule, the “Bacterial Biotransformation” value [16] was “Compound metabolized”, the “Bacterial Biotransformation” value [17] was “Compound metabolized” and the “Bacterial Biotransformation” value [18] was “Compound metabolized”. The “Bacterial Biotransformation” value [19] was “Compound metabolized” and the “Bacterial Biotransformation” value [20] was “Compound metabolized”.

In the case of `COc1ccc(CN2CCNCC2)c(OC)c1OC.Cl.Cl` [TRIMETAZIDINE DIHYDROCHLORIDE], the “Bacterial Biotransformation” value [1] is reported as “Compound NOT metabolized”, the “Bacterial Biotransformation” value [2] is reported as “Compound NOT metabolized” and the “Bacterial Biotransformation” value [3] is reported as “Compound NOT metabolized”. For the same molecule, the “Bacterial Biotransformation” value [4] was “Compound NOT metabolized”, the “Bacterial Biotransformation” value [5] was “Compound NOT metabolized” and the “Bacterial Biotransformation” value [6] was “Compound NOT metabolized”. For the same molecule, the “Bacterial Biotransformation” value [7] was “Compound NOT metabolized”, the “Bacterial Biotransformation” value [8] was “Compound NOT metabolized” and the “Bacterial Biotransformation” value [9] was “Compound NOT metabolized”. For the same molecule, the “Bacterial Biotransformation” value [10] was “Compound NOT metabolized”, the “Bacterial Biotransformation” value [11] was “Compound NOT metabolized” and the “Bacterial Biotransformation” value [12] was “Compound NOT metabolized”. The “Bacterial Biotransformation” value [13] was “Compound NOT metabolized”, the “Bacterial Biotransformation” value [14] was “Compound NOT metabolized” and the “Bacterial Biotransformation” value [15] was “Compound NOT metabolized”. The “Bacterial Biotransformation” value [16] was “Compound NOT metabolized”, the “Bacterial Biotransformation” value [17] was “Compound NOT metabolized” and the “Bacterial Biotransformation” value [18] was “Compound NOT metabolized”. For the same molecule, the “Bacterial Biotransformation” value [19] was “Compound NOT metabolized” and the “Bacterial Biotransformation” value [20] was “Compound NOT metabolized”.

With `CN1[C@@H]2CC[C@H]1C[C@@H](OC(=O)c1c[nH]c3ccccc13)C2` [TROPISETRON] the “Bacterial Biotransformation” value [1] was “Compound NOT metabolized”, the “Bacterial Biotransformation” value [2] was “Compound metabolized” and the “Bacterial Biotransformation” value [3] was “Compound NOT metabolized”. The “Bacterial Biotransformation” value [4] was “Compound NOT metabolized”, the “Bacterial Biotransformation” value [5] was “Compound NOT metabolized” and the “Bacterial Biotransformation” value [6] was “Compound NOT metabolized”. For the same molecule, the “Bacterial Biotransformation” value [7] was “Compound NOT metabolized”, the “Bacterial Biotransformation” value [8] was “Compound NOT metabolized” and the “Bacterial Biotransformation” value [9] was “Compound NOT metabolized”. The “Bacterial Biotransformation” value [10] was “Compound NOT metabolized”, the “Bacterial Biotransformation” value [11] was “Compound NOT metabolized” and the “Bacterial Biotransformation” value [12] was “Compound NOT metabolized”. For the same molecule, the “Bacterial Biotransformation” value [13] was “Compound NOT metabolized”, the “Bacterial Biotransformation” value [14] was “Compound NOT metabolized” and the “Bacterial Biotransformation” value [15] was “Compound NOT metabolized”. The “Bacterial Biotransformation” value [16] was “Compound NOT metabolized”, the “Bacterial Biotransformation” value [17] was “Compound NOT metabolized” and the “Bacterial Biotransformation” value [18] was “Compound NOT metabolized”. The “Bacterial Biotransformation” value [19] was “Compound NOT metabolized” and the “Bacterial Biotransformation” value [20] was “Compound NOT metabolized”.
